Data taken from patent US20170000749A1, “Methods for Treating Cognitive Disorders Using Inhibitors of Histone Deacetylase” (Forum Pharmaceuticals, Inc., priority 2008, published 2017).
Read-outs that look alike come from different tables or passages of the source.

Columns and labels:
[1] = biological target: one or more of HDAC-1, HDAC-2, HDAC-3, HDAC-4, HDAC-5, HDAC-6, HDAC-7, HDAC-8, HDAC-9, HDAC-10 and HDAC-11; experiment: Inhibition of Histone Deacetylase Enzymatic Activity (Boc-Lys(Ac)-AMC substrate, Fluor-de-Lys developer); type: biochemical; conditions: read-out: HDAC Inhibition (IC50 μM) HDAC Enzyme
Description: The following protocol is used to assay the compounds of the disclosure.
The mixture is pre-incubated for 5 minutes at room temperature. The reaction is started by bringing the temperature to 37° C. and adding 16 μl substrate. Total reaction volume is 50 μl.
In the Tables 8, 9 and 10, A≦0.05 μM; 0.05 μM<B≦0.1 μM; 0.1 μM<C≦1 μM; and 1 μM<D≦10 μM.

[2] = test system: HDAC activity in primary mouse cortical cultures; experiment: Whole-Cell Histone Deacetylase (HDAC) Inhibition Assay in Primary Mouse Cortical Cultures; type: cell-based
How it was run: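 Primary neocortical neurons from E17 Balb/C mouse embryos were plated at 50000 cells/well and treated at DIV9 with ten-point DMSO dilutions for 16-18 h at 37° C, in triplicate. BOC-Lys(Ac)-AMC substrate was then added for 1 h. Fluor de Lys developer containing 1 uM TSA produced a fluorophore, which was read.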

[3] = whole-cell (WC), mouse cortical neurons, Table 10, read-out: HDAC Inhibition (IC50 μM) WC mouse cortical neurons
[4] = whole-cell (WC), mouse cortical neurons, Table 9, read-out: HDAC Inhibition (IC50 μM) WC mouse cortical neurons
[5] = whole-cell (WC), mouse cortical neurons, Table 8, read-out: HDAC Inhibition (IC50 μM) WC mouse cortical neurons

Row | Compound | IC50 ([1]; Table 10) [µM] | IC50 [2, 3] [µM] | IC50 ([1]; Table 9) [µM] | IC50 [2, 4] [µM] | other results
1 | O=C(CCCCCCC(=O)N1c2ccccc2C=Cc2ccccc21)NO [(Z)-8-(5H-dibenzo[b,f]azepin-5-yl)-N-hydroxy-8-oxooctanamide] | 0.1 to 1 | 5 to 15 |  |  | 
2 | O=C(NO)c1cnc(N2C[C@@H]3C[C@H]2CN3C(=O)OCC2CC2)nc1 [(1S,4S)-cyclopropylmethyl 5-(5-(hydroxycarbamoyl)pyrimidin-2-yl)-2,5-diazabicyclo[2.2.1]heptane-2-carboxylate] |  |  | < 0.05 | < 1 | 
3 | O=C(NO)c1ccc(C2=Nc3cncnc3N3CCc4cccc2c43)cc1 |  |  |  |  | IC50 ([1]; Table 8): 0.1 to 1 µM; IC50 [2, 5]: 5 to 15 µM
4 | O=C(NO)c1ccc(/C=C/CN2C(=O)c3ccccc3Oc3ccccc32)cc1 [(E)-N-hydroxy-4-(3-(11-oxodibenzo[b,f][1,4]oxazepin-10(11H)-yl)prop-1-enyl)benzamide] | 0.05 to 0.1 | < 1 |  |  | 
5 | O=C(NO)c1ccc(OCCN2CCOc3ccccc3C2=O)cc1 | < 0.05 | 1 to 5 |  |  | 
6 | O=C(CCCCN1c2ccccc2C=Cc2ccccc21)NO [(Z)-5-(5H-dibenzo[b,f]azepin-5-yl)-N-hydroxypentanamide] | 0.1 to 1 | 5 to 15 |  |  | 
7 | O=C(NO)c1ccc(C2=Nc3ccccc3Oc3c[n+]([O-])ccc32)cc1 [(Z)-5-(4-(hydroxycarbamoyl)phenyl)benzo[b]pyrido[4,3-f][1,4]oxazepine 2-oxide] |  |  |  |  | IC50 ([1]; Table 8): 0.1 to 1 µM; IC50 [2, 5]: 5 to 15 µM
8 | O=C(NO)c1ccc(C2=Nc3ccccc3N(C3CC3)c3ccc(F)cc32)cc1 [(Z)-4-(5-cyclopropyl-2-fluoro-5H-dibenzo[b,e][1,4]diazepin-11-yl)-N-hydroxybenzamide] |  |  |  |  | IC50 ([1]; Table 8): 0.05 to 0.1 µM; IC50 [2, 5]: 1 to 5 µM
9 | O=C(NO)c1cnc(N2C[C@@H]3C[C@H]2CN3c2cccc(F)c2)nc1 [2-((1S,4S)-5-(3-fluorophenyl)-2,5-diazabicyclo[2.2.1]heptan-2-yl)-N-hydroxypyrimidine-5-carboxamide] |  |  | < 0.05 | < 1 | 
10 | O=C(NO)c1ccc(N2C[C@@H]3C[C@H]2CN3c2cccc(C(F)(F)F)c2)cc1 [N-hydroxy-4-((1S,4S)-5-(3-(trifluoromethyl)phenyl)-2,5-diazabicyclo[2.2.1]heptan-2-yl)benzamide] |  |  | 0.1 to 1 | 1 to 5 | 
11 | Cc1cccc(N2CC3CC2CN3c2ccc(C(=O)NO)cc2)c1 (stereo not shown) [N-hydroxy-4-(5-m-tolyl-2,5-diazabicyclo[2.2.1]heptan-2-yl)benzamide] |  |  | 0.1 to 1 | 1 to 5 | 
12 | CS(=O)(=O)c1cccc2c1Oc1ccccc1N=C2c1ccc(C(=O)NO)cc1 [(Z)—N-hydroxy-4-(4-(methylsulfonyl)dibenzo[b,f][1,4]oxazepin-11-yl)benzamide] |  |  |  |  | IC50 ([1]; Table 8): < 0.05 µM; IC50 [2, 5]: 1 to 5 µM
13 | Cc1ccc(N2C[C@H]3C[C@@H]2CN3c2ncc(C(=O)NO)cn2)cc1 [N-hydroxy-2-((1R,4R)-5-p-tolyl-2,5-diazabicyclo[2.2.1]heptan-2-yl)pyrimidine-5-carboxamide] |  |  | < 0.05 | < 1 | 
14 | CN1C(=O)CN=C(c2ccccc2)c2ccc(/C=C/C(=O)NO)cc21 [(E)-N-hydroxy-3-((Z)-1-methyl-2-oxo-5-phenyl-2,3-dihydro-1H-benzo[e][1,4]diazepin-8-yl)acrylamide] | 0.1 to 1 |  |  |  | IC50 ([2]; read-out: HDAC Inhibition (IC50 μM) WC mouse cortical neurons, Table 10): 1 to 5 µM
15 | O=C(NO)c1ccc(C2=Nc3ccccc3Nc3ccccc32)cc1 [(Z)-4-(5H-dibenzo[b,e][1,4]diazepin-11-yl)-N-hydroxybenzamide] |  |  |  |  | IC50 ([1]; Table 8): 0.1 to 1 µM; IC50 [2, 5]: 1 to 5 µM
16 | O=C(/C=C/c1ccc(CN2c3ccccc3C=Cc3ccccc32)cc1)NO [(E)-3-(4-(((Z)-5H-dibenzo[b,f]azepin-5-yl)methyl)phenyl)-N-hydroxyacrylamide] | 0.05 to 0.1 | 1 to 5 |  |  | 

Row | Compound | IC50 ([1]; Table 10) [µM] | IC50 [2, 3] [µM] | IC50 ([1]; Table 9) [µM] | IC50 [2, 4] [µM] | other results
17 | O=C(NO)c1cnc(N2C[C@@H]3C[C@H]2CN3c2cc(C(F)(F)F)ccn2)nc1 [N-hydroxy-2-((1S,4S)-5-(4-(trifluoromethyl)pyridin-2-yl)-2,5-diazabicyclo[2.2.1]heptan-2-yl)pyrimidine-5-carboxamide] |  |  | < 0.05 | < 1 | 
18 | O=C(CCCCCCCON=C1c2ccccc2CCc2ccccc21)NO | 0.1 to 1 | 1 to 5 |  |  | 
19 | O=C(CCCCCCN1Cc2ccccc2Oc2ccccc21)NO [7-(dibenzo[b,f][1,4]oxazepin-10(11H)-yl)-N-hydroxyheptanamide] | 0.1 to 1 | > 15 |  |  | 
20 | O=C(NO)c1cnc(N2C[C@@H]3C[C@H]2CN3C(=O)OC2CCCC2)nc1 [(1S,4S)-cyclopentyl 5-(5-(hydroxycarbamoyl)pyrimidin-2-yl)-2,5-diazabicyclo[2.2.1]heptane-2-carboxylate] |  |  | < 0.05 | < 1 | 
21 | O=C(CCCCCN1c2ccccc2CCc2ccccc21)NO [6-(10,11-dihydro-5H-dibenzo[b,f]azepin-5-yl)-N-hydroxyhexanamide] | < 0.05 | 1 to 5 |  |  | 
22 | O=C(NO)c1cnc(N2C[C@@H]3C[C@H]2CN3C(=O)OCc2ccccc2)nc1 [(1S,4S)-benzyl 5-(5-(hydroxycarbamoyl)pyrimidin-2-yl)-2,5-diazabicyclo[2.2.1]heptane-2-carboxylate] |  |  | < 0.05 | < 1 | 
23 | O=C(CCCCCN1C(=O)c2ccccc2Oc2ccccc21)NO [N-hydroxy-6-(11-oxodibenzo[b,f][1,4]oxazepin-10(11H)-yl)hexanamide] | < 0.05 | < 1 |  |  | 
24 | O=C(NO)c1cnc(N2C[C@@H]3C[C@H]2CN3C(=O)OCc2cccnc2)nc1 [(1S,4S)-pyridin-3-ylmethyl 5-(5-(hydroxycarbamoyl)pyrimidin-2-yl)-2,5-diazabicyclo[2.2.1]heptane-2-carboxylate] |  |  | < 0.05 | < 1 | 
25 | Cc1cccc(N2C[C@H]3C[C@@H]2CN3c2ccc(C(=O)NO)cc2)c1 [N-hydroxy-4-((1R,4R)-5-m-tolyl-2,5-diazabicyclo[2.2.1]heptan-2-yl)benzamide] |  |  | 0.1 to 1 | 1 to 5 | 
26 | O=C(NO)c1cnc(N2C[C@@H]3C[C@H]2CN3C(c2ccccc2)c2ccccc2)nc1 [2-((1S,4S)-5-benzhydryl-2,5-diazabicyclo[2.2.1]heptan-2-yl)-N-hydroxypyrimidine-5-carboxamide] |  |  | < 0.05 | 1 to 5 | 
27 | O=C(NO)c1ccc(C2=Nc3ccccc3Oc3cc(F)ccc32)cc1 [(Z)-4-(3-fluorodibenzo[b,f][1,4]oxazepin-11-yl)-N-hydroxybenzamide] |  |  |  |  | IC50 ([1]; Table 8): 0.1 to 1 µM; IC50 [2, 5]: > 15 µM
28 | CN(C)C(=O)c1cccc(N2C[C@@H]3C[C@H]2CN3c2ncc(C(=O)NO)cn2)c1 [2-((1S,4S)-5-(3-(dimethylcarbamoyl)phenyl)-2,5-diazabicyclo[2.2.1]heptan-2-yl)-N-hydroxypyrimidine-5-carboxamide] |  |  | < 0.05 | < 1 | 
29 | O=C(NO)c1ccc(C2=Nc3cc(Cl)ccc3Nc3ccccc32)cc1 [(Z)-4-(8-oro-5H-dibenzo[b,e][1,4]diazepin-11-yl)-N-hydroxybenzamide] |  |  |  |  | IC50 ([1]; Table 8): 0.05 to 0.1 µM; IC50 [2, 5]: 1 to 5 µM
30 | O=C(NO)c1ccc(C2=Nc3ccccc3Oc3ccccc32)nc1 [(E)-6-(dibenzo[b,f][1,4]oxazepin-11-yl)-N-hydroxynicotinamide] |  |  |  |  | IC50 ([1]; Table 8): 0.1 to 1 µM; IC50 [2, 5]: 5 to 15 µM
31 | O=C(NO)c1ccc(OCCN2C(=O)CCOc3ccccc32)cc1 | < 0.05 | < 1 |  |  | 
32 | COCCOc1cccc2c1Oc1ccccc1N=C2c1ccc(C(=O)NO)cc1 [(Z)—N-hydroxy-4-(4-(2-methoxyethoxy)dibenzo[b,f][1,4]oxazepin-11-yl)benzamide] |  |  |  |  | IC50 ([1]; Table 8): < 0.05 µM; IC50 [2, 5]: 1 to 5 µM
